Source: PubChem BioAssay (NCI)
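48-hour exposure; five concentrations; linearly interpolated endpoints. TGI is the concentration that stops growth completely.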

Legend:
Experiment in all cases: growth of human tumour cells (NCI), 48 h
M14 melanoma = tested on: M14 melanoma
HCT-15 colon = tested on: HCT-15 colon
LOX IMVI melanoma = tested on: LOX IMVI melanoma
NCI-H460 lung = tested on: NCI-H460 lung
MDA-MB-231 breast = tested on: MDA-MB-231 breast
OVCAR-3 ovarian = tested on: OVCAR-3 ovarian
SK-MEL-2 melanoma = tested on: SK-MEL-2 melanoma
MDA-MB-435 = tested on: MDA-MB-435
HL-60(TB) leukemia = tested on: HL-60(TB) leukemia
786-0 renal = tested on: 786-0 renal
SW-620 colon = tested on: SW-620 colon
MALME-3M melanoma = tested on: MALME-3M melanoma
MCF7 breast = tested on: MCF7 breast
CAKI-1 renal = tested on: CAKI-1 renal
OVCAR-5 ovarian = tested on: OVCAR-5 ovarian
SK-MEL-5 melanoma = tested on: SK-MEL-5 melanoma
HCT-116 colon = tested on: HCT-116 colon
HT29 colon = tested on: HT29 colon
U251 CNS = tested on: U251 CNS
SF-539 CNS = tested on: SF-539 CNS
K-562 leukemia = tested on: K-562 leukemia
DU-145 prostate = tested on: DU-145 prostate
SNB-19 CNS = tested on: SNB-19 CNS
NCI-H522 lung = tested on: NCI-H522 lung
BT-549 breast = tested on: BT-549 breast
OVCAR-8 ovarian = tested on: OVCAR-8 ovarian
MDA-N = tested on: MDA-N
A549 NSCLC = tested on: A549 NSCLC
SK-OV-3 ovarian = tested on: SK-OV-3 ovarian
SF-268 CNS = tested on: SF-268 CNS
PC-3 prostate = tested on: PC-3 prostate
A498 renal = tested on: A498 renal
TK-10 renal = tested on: TK-10 renal
CCRF-CEM leukemia = tested on: CCRF-CEM leukemia
SF-295 CNS = tested on: SF-295 CNS
EKVX NSCLC = tested on: EKVX NSCLC
RXF 393 renal = tested on: RXF 393 renal
HOP-62 NSCLC = tested on: HOP-62 NSCLC
IGROV1 ovarian = tested on: IGROV1 ovarian
SN12C renal = tested on: SN12C renal
HS 578T breast = tested on: HS 578T breast
NCI-H23 lung = tested on: NCI-H23 lung
T-47D breast = tested on: T-47D breast
RPMI-8226 leukemia = tested on: RPMI-8226 leukemia
KM12 colon = tested on: KM12 colon
COLO 205 colon = tested on: COLO 205 colon
UACC-62 melanoma = tested on: UACC-62 melanoma
SK-MEL-28 melanoma = tested on: SK-MEL-28 melanoma
HOP-92 NSCLC = tested on: HOP-92 NSCLC
UACC-257 melanoma = tested on: UACC-257 melanoma
ACHN renal = tested on: ACHN renal
OVCAR-4 ovarian = tested on: OVCAR-4 ovarian
MOLT-4 leukemia = tested on: MOLT-4 leukemia
HCC-2998 colon = tested on: HCC-2998 colon
NCI/ADR-RES ovarian = tested on: NCI/ADR-RES ovarian
NCI-H226 lung = tested on: NCI-H226 lung
UO-31 renal = tested on: UO-31 renal
SR leukemia = tested on: SR leukemia
SNB-75 CNS = tested on: SNB-75 CNS

## C#Cc1cc(Br)c(OC(=O)C(C)(C)C)c(-c2cc(C#C)cc(Br)c2OC(=O)C(C)(C)C)c1
M14 melanoma
  TGI: > 100 µM
HCT-15 colon
  TGI: > 100 µM
LOX IMVI melanoma
  TGI: 49.1 µM
NCI-H460 lung
  TGI: > 100 µM
MDA-MB-231 breast
  TGI: > 100 µM
OVCAR-3 ovarian
  TGI: > 100 µM
SK-MEL-2 melanoma
  TGI: > 100 µM
MDA-MB-435
  TGI: > 100 µM
HL-60(TB) leukemia
  TGI: 30.3 µM
786-0 renal
  TGI: > 100 µM
SW-620 colon
  TGI: > 100 µM
MALME-3M melanoma
  TGI: > 100 µM
MCF7 breast
  TGI: > 100 µM
CAKI-1 renal
  TGI: > 100 µM
OVCAR-5 ovarian
  TGI: 66 µM
SK-MEL-5 melanoma
  TGI: > 100 µM
HCT-116 colon
  TGI: > 100 µM
HT29 colon
  TGI: > 100 µM
U251 CNS
  TGI: > 100 µM
SF-539 CNS
  TGI: > 100 µM
K-562 leukemia
  TGI: > 100 µM
DU-145 prostate
  TGI: > 100 µM
SNB-19 CNS
  TGI: > 100 µM
NCI-H522 lung
  TGI: > 100 µM
BT-549 breast
  TGI: > 100 µM
OVCAR-8 ovarian
  TGI: > 100 µM
MDA-N
  TGI: > 100 µM
A549 NSCLC
  TGI: > 100 µM
SK-OV-3 ovarian
  TGI: > 100 µM
SF-268 CNS
  TGI: > 100 µM
PC-3 prostate
  TGI: > 100 µM
A498 renal
  TGI: > 100 µM
TK-10 renal
  TGI: > 100 µM
CCRF-CEM leukemia
  TGI: 36.1 µM
SF-295 CNS
  TGI: > 100 µM
EKVX NSCLC
  TGI: > 100 µM
RXF 393 renal
  TGI: 46.7 µM
HOP-62 NSCLC
  TGI: > 100 µM
IGROV1 ovarian
  TGI: > 100 µM
SN12C renal
  TGI: > 100 µM
HS 578T breast
  TGI: > 100 µM
NCI-H23 lung
  TGI: > 100 µM
T-47D breast
  TGI: > 100 µM
RPMI-8226 leukemia
  TGI: 46.4 µM
KM12 colon
  TGI: > 100 µM
COLO 205 colon
  TGI: > 100 µM
UACC-62 melanoma
  TGI: > 100 µM
SK-MEL-28 melanoma
  TGI: > 100 µM
HOP-92 NSCLC
  TGI: > 100 µM
UACC-257 melanoma
  TGI: > 100 µM
ACHN renal
  TGI: 73.8 µM
OVCAR-4 ovarian
  TGI: > 100 µM
MOLT-4 leukemia
  TGI: > 100 µM
HCC-2998 colon
  TGI: 90.7 µM
NCI/ADR-RES ovarian
  TGI: > 100 µM

## Oc1cc(N2CCCC2)ccc1/C=N/N1C(=S)N(c2ccccc2)C(=Nc2ccccc2)C1=Nc1ccccc1
M14 melanoma
  TGI: > 100 µM
HCT-15 colon
  TGI: > 100 µM
NCI-H460 lung
  TGI: > 100 µM
MDA-MB-231 breast
  TGI: 90.3 µM
OVCAR-3 ovarian
  TGI: > 100 µM
SK-MEL-2 melanoma
  TGI: > 100 µM
MDA-MB-435
  TGI: > 100 µM
786-0 renal
  TGI: > 100 µM
SW-620 colon
  TGI: > 100 µM
NCI-H226 lung
  TGI: > 100 µM
MALME-3M melanoma
  TGI: > 100 µM
MCF7 breast
  TGI: > 100 µM
CAKI-1 renal
  TGI: > 100 µM
OVCAR-5 ovarian
  TGI: > 100 µM
SK-MEL-5 melanoma
  TGI: > 100 µM
UO-31 renal
  TGI: > 100 µM
HCT-116 colon
  TGI: > 100 µM
HT29 colon
  TGI: > 100 µM
U251 CNS
  TGI: > 100 µM
SF-539 CNS
  TGI: > 100 µM
K-562 leukemia
  TGI: > 100 µM
DU-145 prostate
  TGI: > 100 µM
SNB-19 CNS
  TGI: > 100 µM
NCI-H522 lung
  TGI: > 100 µM
BT-549 breast
  TGI: > 100 µM
OVCAR-8 ovarian
  TGI: > 100 µM
MDA-N
  TGI: > 100 µM
A549 NSCLC
  TGI: > 100 µM
SK-OV-3 ovarian
  TGI: > 100 µM
SF-268 CNS
  TGI: > 100 µM
PC-3 prostate
  TGI: > 100 µM
TK-10 renal
  TGI: > 100 µM
SF-295 CNS
  TGI: > 100 µM
SR leukemia
  TGI: > 100 µM
EKVX NSCLC
  TGI: > 100 µM
RXF 393 renal
  TGI: 46.1 µM
HOP-62 NSCLC
  TGI: > 100 µM
IGROV1 ovarian
  TGI: > 100 µM
SN12C renal
  TGI: > 100 µM
HS 578T breast
  TGI: > 100 µM
NCI-H23 lung
  TGI: > 100 µM
T-47D breast
  TGI: > 100 µM
RPMI-8226 leukemia
  TGI: > 100 µM
KM12 colon
  TGI: > 100 µM
COLO 205 colon
  TGI: > 100 µM
UACC-62 melanoma
  TGI: > 100 µM
SK-MEL-28 melanoma
  TGI: > 100 µM
HOP-92 NSCLC
  TGI: > 100 µM
UACC-257 melanoma
  TGI: > 100 µM
ACHN renal
  TGI: > 100 µM
MOLT-4 leukemia
  TGI: > 100 µM
HCC-2998 colon
  TGI: > 100 µM
NCI/ADR-RES ovarian
  TGI: > 100 µM

## O=S1(=O)OCCOS(=O)(=O)C1Cc1cccc2ccccc12
M14 melanoma
  TGI: 54.9 µM
HCT-15 colon
  TGI: 87.1 µM
LOX IMVI melanoma
  TGI: 55.4 µM
NCI-H460 lung
  TGI: 35.4 µM
MDA-MB-231 breast
  TGI: 46.6 µM
SK-MEL-2 melanoma
  TGI: > 100 µM
MDA-MB-435
  TGI: 32 µM
HL-60(TB) leukemia
  TGI: 29.9 µM
786-0 renal
  TGI: 54.8 µM
SW-620 colon
  TGI: > 100 µM
NCI-H226 lung
  TGI: 36.3 µM
MALME-3M melanoma
  TGI: 31.2 µM
MCF7 breast
  TGI: 37.6 µM
CAKI-1 renal
  TGI: > 100 µM
OVCAR-5 ovarian
  TGI: 60.9 µM
SNB-75 CNS
  TGI: > 100 µM
SK-MEL-5 melanoma
  TGI: 28.2 µM
UO-31 renal
  TGI: 48.8 µM
HCT-116 colon
  TGI: 48.3 µM
HT29 colon
  TGI: 71.4 µM
U251 CNS
  TGI: 40.7 µM
SF-539 CNS
  TGI: 39.9 µM
K-562 leukemia
  TGI: 38.2 µM
DU-145 prostate
  TGI: 31.1 µM
SNB-19 CNS
  TGI: 87.3 µM
NCI-H522 lung
  TGI: 47.8 µM
OVCAR-8 ovarian
  TGI: 34.7 µM
MDA-N
  TGI: 59.3 µM
A549 NSCLC
  TGI: > 100 µM
SK-OV-3 ovarian
  TGI: 70.7 µM
SF-268 CNS
  TGI: 57.8 µM
PC-3 prostate
  TGI: > 100 µM
A498 renal
  TGI: 28.9 µM
TK-10 renal
  TGI: > 100 µM
CCRF-CEM leukemia
  TGI: 40.5 µM
SF-295 CNS
  TGI: > 100 µM
SR leukemia
  TGI: 64.9 µM
EKVX NSCLC
  TGI: 80.3 µM
RXF 393 renal
  TGI: 12 µM
HOP-62 NSCLC
  TGI: 49.1 µM
IGROV1 ovarian
  TGI: 28.6 µM
SN12C renal
  TGI: 62.2 µM
HS 578T breast
  TGI: 84.9 µM
NCI-H23 lung
  TGI: 79.5 µM
T-47D breast
  TGI: > 100 µM
RPMI-8226 leukemia
  TGI: 85.3 µM
COLO 205 colon
  TGI: 29.2 µM
UACC-62 melanoma
  TGI: 57.2 µM
SK-MEL-28 melanoma
  TGI: 21.5 µM
HOP-92 NSCLC
  TGI: 56.6 µM
UACC-257 melanoma
  TGI: 34.2 µM
ACHN renal
  TGI: 99.6 µM
OVCAR-4 ovarian
  TGI: 47 µM
MOLT-4 leukemia
  TGI: 65.9 µM
HCC-2998 colon
  TGI: 43 µM
NCI/ADR-RES ovarian
  TGI: 54.8 µM
